# Experimental data published in patent US20240050406A1, “COMPOSITION COMPRISING OXIRACETAM FOR PREVENTING OR TREATING MUSCULAR DISEASE” (KSB TUGEN INC., priority 2021, published 2024).
# Tests used:
# [1] = test system: animal model in which muscular atrophy is induced by dexamethasone; assay: Comparison with dementia drugs in dexamethasone muscular atrophy model (Experimental Example 5); format: in vivo, ICR mice
# Source text: For an experimental group in the present invention, oxiracetam having a structure of Formula 1 was purchased from Tokyo Chemical Industry (Japan; Product No. 00398, CAS RN:62613-82-5, purity: 96%) and used. Mirtazapine and olanzapine were purchased from Tokyo Chemical Industry (Japan, Product Nos. M2151, 00393, purity: 96%) and used.
# (§1) As experimental animals, 7-week-old male ICR mice were purchased and used. Until the day of the experiment, general feed (EEGJ30060: Cargill Agri Purina, Seongnam, Korea) and water were sufficiently supplied to the experimental animals, and the animals were acclimated for 1 week under an environment of a temperature of 23±2° C., a humidity of 55±10%, and a light-dark cycle of 12 hours-12 hours and used in the experiment.
# After the acclimation period for the experimental animals, to create a muscular atrophy model, the mice were randomly divided into groups of 7 animals, such as a control (vehicle, n=7), a dexamethasone-treated group (n=7), and a drug-administered group (n=7). The groups except for the control were intraperitoneally injected dexamethasone at a dose of 10 mg/kg from day 7 to day 21 for 14 days. In the case of the drug-administered group, 7 days before the intraperitoneal administration of dexamethasone, the drug was orally administered using a Zonde needle at a dose of 30 or 10 mg/kg/day once a day for 21 days. During the same period, the control was administered no drug, and 100 μL of normal saline was orally administered at a time. To the dexamethasone-treated group (dexamethasone excipient, CMC), instead of the drug, 100 μL of a 0.5% carboxymethylcellulose (CMC) solution was administered. This is to set the effect on the excipient as a blank.
# To measure grip strength, a grip strength test was performed. The maximum force presented when the forelimbs of an animal model of each group could no longer hold the rod by pulling the tail horizontally while holding the tail of the animal model and holding the rod of a device with both front paws was considered to be grip strength (N). Grip strength adaptation training was performed at least three times before drug administration. After measurement before drug administration (day 0) and on day 20 after drug administration began, grip strength variation (%) after drug administration began (day 20) with respect to that before drug administration (day 0) was calculated.
# (§2) The lean body mass of the gastrocnemius muscle (GS) and the lean body mass of the tibialis anterior (TA) for each group were measured every 7 days. Specifically, animal models of each group were anesthetized using 3% isoflurane, fixed to a photographing bed and then photographed. During photographing, the respiratory rates and body temperatures of the animal models were measured with an animal monitoring system (SA Instruments, USA).
# (§3) The whole body of the animal model was photographed through dual energy X-ray absorptiometry (DEXA) using iNSiGHT VET DXA (Osteosys, KR), and the lean body mass of each of the gastrocnemius muscle (GS) and the tibialis anterior (TA) was measured and calculated from the two-dimensional images of the gastrocnemius muscle (GS) and the tibialis anterior (TA) by a program using the region of interest (ROI).
# (§4) Statistical processing was performed using GraphPad Prism (GraphPad Software Inc., San Diego, CA, USA). The results of each repeated experiment were expressed as mean±standard error of mean, and analyzed using the analysis of variance (Tukey's test), and statistical significance was acknowledged when the P-value was 0.05 or less.
# [2] = test system: model of sarcopenia caused by aging; assay: Aging animal model, 22-month-old mice (Experimental Example 2); format: in vivo, C57BL/6J mice
# Source text: For an experimental group in the present invention, oxiracetam having a structure of Formula 1 was purchased from Tokyo Chemical Industry (Japan; Product No. 00398, CAS RN:62613-82-5, purity: 96%) and used.
# as §1, with “a model of sarcopenia caused by aging, 22-month-old” for “experimental animals, 7-week-old”, “C57BL/6J” for “ICR”, “were” for “were purchased and”
# The animals were randomly divided into groups of 10 animals, such as a control (vehicle, n=10), and 30, 100, and 300 mg/kg/day oxiracetam-administered groups (n=10 per concentration). To the oxiracetam-administered group, oxiracetam was orally administered using a Zonde needle for 90 days once a day at a dose of 30, 100, or 300 mg/kg/day. During the same period, no drug was administered to the control group, and 100 μL of normal saline was orally administered at a time.
# To measure grip strength, a grip strength test was performed. The maximum force presented when the forelimbs of an animal model of each group could no longer hold the rod by pulling the tail horizontally while holding the tail of the animal model and holding the rod of a device with both front paws was considered to be grip strength (N). The grip strength was measured once every 3 days, and after repeating five measurements at one time, the average value was shown. Grip strength adaptation training was performed at least three times before drug administration.
# as §2, with “each group was measured every” for “each group were measured every”
# as §3
# At 90 days after the start of the experiment, an exercise stress test was performed. First, the experimental animals in each group were acclimatized to a treadmill machine twice before measurement (1st round: inclination 10°, 10 minutes at 5 m/min and 10 minutes at 10 m/min; 2nd round: inclination 10°, 5 minutes at 5 m/min and 15 munutes at 10 m/min). On the day of the experiment, the experimental animals were allowed to run for 20 minutes at an initial speed of 10 m/min at an inclination of 10°, and then the speed was increased by 2 m/min every 2 minutes, and then the running distance and time were measured with the end point when the experimental animal stayed for 10 seconds without running.
# as §4
# [3] = oxiracetam 30, mirtazapine 10, olanzapine 10 mg/kg/day oral 21 days + dexamethasone, DEXA every 7 days
# [4] = Oxi 30, Oxi 100, Oxi 300 mg/kg/day oral, DEXA every 7 days, compared to control
smiles,measurement,setting,value
"NC(=O)CN1CC(O)CC1=O (racemic) [oxiracetam, (RS)-2-(4-hydroxy-2-oxopyrrolidin-1-yl)acetamide]",change in grip strength,"[1]; oxiracetam 30, mirtazapine 10, olanzapine 10 mg/kg/day oral 21 days + dexamethasone 10 mg/kg i.p. day 7-21",significantly recovers
same,lean body mass of the gastrocnemius muscle (GS),[1]; [3],significantly recovers
same,lean body mass of the tibialis anterior (TA),[1]; [3],significantly recovers
same,lean body mass of the gastrocnemius muscle (GS),[2]; [4],increased rather than decreased
same,lean body mass of the tibialis anterior (TA),[2]; [4],increased rather than decreased
same,"physical performance capacity (athletic ability), treadmill running distance and time","[2]; Oxi 30, Oxi 100, Oxi 300, day 90, compared to control",increased rather than decreased
same,"physical performance capacity (athletic ability), treadmill running distance and time","[2]; Oxi 300 group (300 mg/kg/day), day 90",significantly increased
same,lean body mass of the gastrocnemius muscle (GS),"[2]; Oxi 300 group (300 mg/kg/day), from week 7",significantly increased
same,change in grip strength,"[2]; oxiracetam 30, 100 and 300 mg/kg/day oral 90 days, versus control (vehicle)",suppressed and rather increased
